Drawing on patent publication US9556132B2, “Tetrazole derivatives and their use as potassium channel modulators” (SANIONA A/S, priority 2012, dated 2017), this text covers IC50 for 32 compounds.

SMILES strings stand for the structures.

The experiment concerns the target human IK (Homo sapiens (Human), UniProt O15554). The experiment is described as follows: Inhibition of IK channels expressed in HEK293 cells, thallium (I) sensitive FLIPR assay. It counts as cell-based. To be noted: HEK293 cells over-expressing human IK; Tl+-sensitive BTC fluorescence (FLIPR); inhibition of activity induced by Ca2+-ionophore A23187. The method, then:
Following experiment determines the ability of a test compound to inhibit the activity of IK channels heterologously expressed in human HEK293 cells, and was used as the primary screen. The ability is determined as per cent inhibition of the activity induced by addition of the Ca^2+-ionophore A23187 (considered a maximum response). The activity is determined using a standard thallium (I) sensitive assay, e.g. using a fluorometric method in a Fluorescent Image Plate Reader (FLIPR) as described below in more detail.
Full concentration/response curves are generated and IC50 values are calculated based on the degree of inhibition of the maximum response. IC50 values (Inhibitory Concentration) represent the concentration of the test substance at which 50% of the maximum channel activity is inhibited.
Human HEK293 cells over-expressing human IK are grown in culture medium (DMEM supplemented with 10% foetal bovine serum), in polystyrene culture flasks ([…]) in a humidified atmosphere of 5% CO2 in air, at 37° C. Cell confluence should be 80-90% on day of plating. Cells are rinsed with 4 mL of PBS (phosphate buffered saline) and incubated 2 min with 1 mL of Trypsin-EDTA. After addition of 25 mL of culture medium cells are re-suspended by trituration with a 25 mL pipette.
The cells are seeded at a density of ˜3×10^6 cells/mL (25 μL/well) in black-walled, clear bottom, 384-well plates pre-treated with 0.01 g/L poly-D-lysin (20 μL/well for ≧30 min). Plated cells were allowed to proliferate for 24 h before loading with dye.
BTC-AM ([…], Invitrogen) is added 25.5 μl DMSO. The BTC-AM stock solution (2 mM) is diluted to a final concentration of 2 μM in […] assay buffer (in mM: 140 Na^+-gluconate, 2.5 K^+-gluconate, 6 Ca2^+-gluconate, 1 Mg^2+ gluconate, 5 glucose, 10 HEPES, pH 7.3) containing 2 μM ouabain, 2 mM amaranth and 1 mM tartrazine.
The culture medium is aspirated from the wells, and 25 μl of the BTC-AM loading solution are added to each well. The cells are incubated at 37° C. for 60 min.
After the loading period, the Tl^+-sensitive BTC fluorescence signal is measured over time using a FLIPR.
• Temperature: Room temp. • First addition: 12 μl test or control compound after 15 sec at a rate of 30 μL/sec and starting height of 20 μL • Second addition: 12 μL stimulus buffer (Cl^− free assay buffer supplemented with 1 mM Tl2SO4, 5 μM A23187 as well as the quenchers amaranth (2 mM) and tartrazine (1 mM)) is added after an additional 3 minutes at a rate of 30 μL/sec and starting height of 30 μL • Reading intervals: First sequence—3 sec×5, 2 sec×24 and 5 sec×25 • Second sequence—1 sec×5, 2 sec×24 and 5 sec×36
Addition plates (compound plate and stimulus plate) are placed in positions 2 and 3, respectively. Cell plates are placed in position 1 and run using the “IK blocker (EtOH wash, two additions)” program. FLIPR will then take the appropriate measurements in accordance with the interval settings above. Fluorescence obtained after stimulation is corrected for the mean basal fluorescence (in Cl^− free assay buffer).
Full concentration/response curves are generated and IC50 values (“Inhibitory Concentration”, i.e. the concentration of the test substance at which 50% of the maximum channel activity is inhibited) are calculated. The responses are calculated based on peak values.
As for `Oc1ccccc1-c1ccccc1-c1nnnn1-c1ccccc1F` [Compound 2, 2-{2-[1-(2-Fluorophenyl)-1H-1,2,3,4-tetrazol-5-yl]phenyl}phenol], the IC50 stood at 5.9 µM.
The compound `CCOc1ccccc1-c1ccccc1-c1nnnn1-c1ccccc1F` [Compound 3, 5-[2-(2-Ethoxyphenyl)phenyl]-1-(2-fluorophenyl)-1H-1,2,3,4-tetrazole] yielded a half-inhibitory concentration (IC50) of 0.037 µM.
For `COCCOc1ccccc1-c1ccccc1-c1nnnn1-c1ccccc1F` [Compound 4, 1-(2-Fluorophenyl)-5-{2-[2-(2-methoxyethoxyl)phenyl]phenyl}-1H-1,2,3,4-tetrazole], half-maximal inhibition (IC50) required 0.03 µM.
Turning to `Fc1ccccc1-n1nnnc1-c1ccccc1-c1ccccc1OC(F)F` [Compound 5, 5-{2-[2-(Difluoromethoxy)phenyl]phenyl}-1-(2-fluorophenyl)-1H-1,2,3,4-tetrazole], the midpoint of inhibition, the IC50, lay at 0.29 µM.
Regarding `Fc1ccccc1-n1nnnc1-c1ccccc1-c1ccccc1OCC1CC1` [Compound 6, 5-{2-[2-(Cyclopropylmethoxy)phenyl]phenyl}-1-(2-fluorophenyl)-1H-1,2,3,4-tetrazole], 0.71 µM corresponded to half-maximal inhibition (IC50).
`N#CCOc1ccccc1-c1ccccc1-c1nnnn1-c1ccccc1F` [Compound 7, 2-(2-{2-[1-(2-Fluorophenyl)-1H-1,2,3,4-tetrazol-5-yl]phenyl}phenoxy)acetonitrile] came in with a half-inhibitory concentration (IC50) of 0.016 µM.
With `COC(=O)COc1ccccc1-c1ccccc1-c1nnnn1-c1ccccc1F` [Compound 8, Methyl 2-(2-{2-[1-(2-fluorophenyl)-1H-1,2,3,4-tetrazol-5-yl]phenyl}phenoxy)acetate] the figure was 0.59 µM; with `CC(C)Oc1ccccc1-c1ccccc1-c1nnnn1-c1ccccc1F` [Compound 9, 1-(2-Fluorophenyl)-5-{2-[2-(propan-2-yloxy)phenyl]phenyl}-1H-1,2,3,4-tetrazole], 0.77 µM.
As to `FCOc1ccccc1-c1ccccc1-c1nnnn1-c1ccccc1F` [Compound 12, 5-{2-[2-(Fluoromethoxy)phenyl]phenyl}-1-(2-fluorophenyl)-1H-1,2,3,4-tetrazole], the IC50 came out at 0.3 µM.
Turning to `COc1ccccc1-c1ccccc1-c1nnnn1-c1ccccc1F` [Compound 13, 1-(2-Fluorophenyl)-5-[2-(2-methoxyphenyl)phenyl]-1H-1,2,3,4-tetrazole], it took 0.11 µM to reach half-maximal inhibition (IC50).
For the compound `CSc1ccccc1-c1ccccc1-c1nnnn1-c1ccccc1F` [Compound 14, 1-(2-Fluorophenyl)-5-{2-[2-(methylthio)phenyl]phenyl}-1H-1,2,3,4-tetrazole], the concentration for half-maximal inhibition (IC50) is 0.46 µM.
`Fc1ccccc1-n1nnnc1-c1ccccc1-c1ccccc1OC(F)(F)F` [Compound 15, 1-(2-Fluorophenyl)-5-{2-[2-(trifluoromethoxy)phenyl]phenyl}-1H-1,2,3,4-tetrazole] had an IC50 of 1.7 µM.
Consider `COCOc1ccccc1-c1ccccc1-c1nnnn1-c1ccccc1F` [Compound 16, 1-(2-Fluorophenyl)-5-{2-[2-(methoxymethoxy)phenyl]phenyl}-1H-1,2,3,4-tetrazole], for which the midpoint of inhibition, the IC50, lay at 0.19 µM.
On to `NC(=O)COc1ccccc1-c1ccccc1-c1nnnn1-c1ccccc1F` [Compound 17, 2-(2-{2-[1-(2-Fluorophenyl)-1H-1,2,3,4-tetrazol-5-yl]phenyl}phenoxy)acetamide], for which the IC50 turned out to be 1 µM.
Compound `Cc1ccccc1-c1ccccc1-c1nnnn1-c1ccccc1F` [Compound 19, 1-(2-Fluorophenyl)-5-[2-(2-methylphenyl)phenyl]-1H-1,2,3,4-tetrazole] registered a half-inhibitory concentration (IC50) of 0.51 µM.
Consider `CCc1ccccc1-c1ccccc1-c1nnnn1-c1ccccc1F` [Compound 20, 5-[2-(2-Ethylphenyl)phenyl]-1-(2-fluorophenyl)-1H-1,2,3,4-tetrazole], for which the IC50 amounted to 0.29 µM.
For `O=Cc1ccccc1-c1ccccc1-c1nnnn1-c1ccccc1F` [Compound 21, 2-{2-[1-(2-Fluorophenyl)-1H-1,2,3,4-tetrazol-5-yl]phenyl}benzaldehyde], the midpoint of inhibition, the IC50, lay at 0.55 µM.
Consider `Fc1ccccc1-n1nnnc1-c1ccccc1-c1ccccc1C(F)(F)F` [Compound 22, 1-(2-Fluorophenyl)-5-{2-[2-(trifluoromethyl)phenyl]phenyl}-1H-1,2,3,4-tetrazole], for which the IC50 is 1.7 µM.
With `Fc1ccccc1-n1nnnc1-c1ccccc1-c1ccccc1Br` [Compound 23, 5-[2-(2-Bromophenyl)phenyl]-1-(2-fluorophenyl)-1H-1,2,3,4-tetrazole] the figure was 0.55 µM; with `Fc1ccccc1-n1nnnc1-c1ccccc1-c1ccccc1Cl` [Compound 24, 5-[2-(2-Chlorophenyl)phenyl]-1-(2-fluorophenyl)-1H-1,2,3,4-tetrazole], 0.36 µM; with `Fc1ccccc1-c1ccccc1-c1nnnn1-c1ccccc1F` [Compound 25, 1-(2-Fluorophenyl)-5-[2-(2-fluorophenyl)phenyl]-1H-1,2,3,4-tetrazole], 0.7 µM.
`CN(C)c1ccccc1-c1ccccc1-c1nnnn1-c1ccccc1F` [Compound 26, 2-{2-[1-(2-Fluorophenyl)-1H-1,2,3,4-tetrazol-5-yl]phenyl}-N,N-dimethylaniline] gave an IC50 of 0.82 µM.
With `Nc1ccccc1-c1ccccc1-c1nnnn1-c1ccccc1F` [Compound 27, 2-{2-[1-(2-Fluorophenyl)-1H-1,2,3,4-tetrazol-5-yl]phenyl}aniline] the figure was 0.9 µM.
With `OCc1ccccc1-c1ccccc1-c1nnnn1-c1ccccc1F` [Compound 28, (2-{2-[1-(2-Fluorophenyl)-1H-1,2,3,4-tetrazol-5-yl]phenyl}phenyl)methanol] the figure was 0.77 µM; with `COCc1ccccc1-c1ccccc1-c1nnnn1-c1ccccc1F` [Compound 29, 1-(2-Fluorophenyl)-5-{2-[2-(methoxymethyl)phenyl]phenyl}-1H-1,2,3,4-tetrazole], 0.058 µM.
For `O/N=C/c1ccccc1-c1ccccc1-c1nnnn1-c1ccccc1F` [Compound 30, (E)-N-[(2-{2-[1-(2-Fluorophenyl)-1H-1,2,3,4-tetrazol-5-yl]phenyl}phenyl)methylidene]hydroxylamine], the IC50 is 0.057 µM.
For the compound `N#Cc1ccccc1-c1ccccc1-c1nnnn1-c1ccccc1F` [Compound 31, 2-{2-[1-(2-Fluorophenyl)-1H-1,2,3,4-tetrazol-5-yl]phenyl}benzonitrile], half-maximal inhibition (IC50) was put at 0.11 µM.
On to `Fc1ccccc1-n1nnnc1-c1ccccc1-c1ccccc1C(F)F` [Compound 32, 5-{2-[2-(Difluoromethyl)phenyl]phenyl}-1-(2-fluorophenyl)-1H-1,2,3,4-tetrazole], for which the half-inhibitory concentration (IC50) was 0.87 µM.
With `FCc1ccccc1-c1ccccc1-c1nnnn1-c1ccccc1F` [Compound 33, 5-{2-[2-(Fluoromethyl)phenyl]phenyl}-1-(2-fluorophenyl)-1H-1,2,3,4-tetrazole] the figure was 0.017 µM; with `Fc1ccccc1-n1nnnc1-c1ccccc1-c1ccccc1` [Compound 40, 1-(2-Fluorophenyl)-5-(2-phenylphenyl)-1H-1,2,3,4-tetrazole], 0.8 µM; with `Fc1ccccc1-c1ccccc1-c1nnnn1-c1ccccc1Cl` [Compound 48, 1-(2-Chlorophenyl)-5-[2-(2-fluorophenyl)phenyl]-1H-1,2,3,4-tetrazole], 1 µM.
With `COc1ccccc1-c1ccccc1-c1nnnn1-c1ccccc1Cl` [Compound 49, 1-(2-Chlorophenyl)-5-[2-(2-methoxyphenyl)phenyl]-1H-1,2,3,4-tetrazole] the figure was 0.54 µM.
